Consider 21 compounds from US10501479B2, “Benzenesulfonyl-asymmetric ureas and medical uses thereof” (HELSINN HEALTHCARE SA, priority 2016, dated 2019).

SMILES strings stand for the structures.

Holding throughout (type): cell-based
In assay [1] the target is T1, GHSR-1a (HEK293/GHSR1a cell line) (Homo sapiens, UniProt Q92847).
T1 construct: expressed in transfected cells; host or cells: HEK293/GHSR1a cell line
Nature of the assay: Ghrelin antagonist potency (IC50) with calcium FLIPR assay, ghrelin 10 nM. As to conditions: ghrelin antagonist potency, read-out: Activity IC50. Summed up:
(§1)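 Cells seeded 24 h before the run were loaded with calcium dye for 30-60 min at room temperature or 37° C. For agonism, compound was added at t=20 sec and the calcium signal followed for 2 minutes. For antagonism, compound plus ghrelin (10 nM) went on at t=20 sec, and IC50 reflected the drop in ghrelin response.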

The target in assay [2] is T1, GHSR-1a (HEK293/GHSR1a cell line). Briefly: Ghrelin agonist potency (EC50) with calcium FLIPR assay. As to conditions: ghrelin agonist potency, read-out: Activity EC50/EMax. Summed up:
as §1

Assay [3] addresses T2, recombinant human ghrelin receptor (HEK293/GRLN) (Homo sapiens, UniProt Q92847).
T2 construct: expressed in transfected cells
Briefly: Ghrelin inverse agonist potency (EC50) with IP-1 (IP-One HTRF) assay. As to conditions: ghrelin inverse agonist potency, IP-1 assay; read-out: Activity EC50. Summed up: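 HEK293/GRLN cells were seeded 18-22 hours before the test, then exposed to compound in stimulation buffer for 1 hour at 37° C, 5% CO2. IP-1 was detected by IP-One HTRF (IP1-d2 plus Tb-cryptate, 1 hour RT), reading 620 and 665 nm; the inverse agonist EC50 was derived from this.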
(In general: TR-FRET usually uses a lanthanide donor and a delayed reading to cut background.)

T1 sequence (Q92847 whole entry): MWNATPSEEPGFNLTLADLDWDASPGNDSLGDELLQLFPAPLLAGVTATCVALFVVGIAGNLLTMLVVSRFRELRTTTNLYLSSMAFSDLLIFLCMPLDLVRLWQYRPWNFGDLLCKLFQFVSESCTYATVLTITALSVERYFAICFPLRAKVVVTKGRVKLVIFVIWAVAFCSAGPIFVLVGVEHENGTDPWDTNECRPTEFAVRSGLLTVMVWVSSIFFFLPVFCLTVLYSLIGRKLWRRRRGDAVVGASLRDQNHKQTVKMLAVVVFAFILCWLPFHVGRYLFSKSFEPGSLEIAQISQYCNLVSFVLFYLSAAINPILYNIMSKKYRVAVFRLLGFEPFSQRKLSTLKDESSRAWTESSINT
T2 sequence (Q92847 whole entry): as above

One may read the IC50 as the concentration at which inhibition is half-maximal. Consider `COc1ccc(CNC(=O)Nc2ccc(S(=O)(=O)Cc3ccc4c(c3)CN(C)C4)cc2)cc1Cl` [H1478, 1-(3-chloro-4-methoxybenzyl)-3-(4-(((2-methylisoindolin-5-yl)methyl)sulfonyl)phenyl)urea], for which, in assay [1], the IC50 was 0.0403 µM. The EC50 is more than 30 µM in assay [2] and 0.0196 µM in assay [3].
Taken in the same sequence, the figures for `CC(NC(=O)Nc1ccc(C(=O)Nc2ccc3c(c2)CNC3)cc1)c1ccccc1` (stereo not drawn) [H1479, N-(isoindolin-5-yl)-4-(3-(1-phenylethyl)ureido)benzamide] were 2.5 µM, more than 30 µM and 1.95 µM.
In the case of `CC(NC(=O)Nc1ccc(C(=O)Nc2ccc3c(c2)CN(C)C3)cc1)c1ccccc1` (stereo not drawn) [H1480, N-(2-methylisoindolin-5-yl)-4-(3-(1-phenylethyl)ureido)benzamide], the IC50 in assay [1] came out at 24.2 µM. The EC50 in assay [2] was more than 30 µM; in assay [3] it was more than 10 µM.
The matching figures for `O=C(NCC1COc2ccccc2O1)Nc1ccc(S(=O)(=O)Cc2ccc3c(c2)CNC3)cc1` (stereo not drawn) [H1483, 1-((2,3-dihydrobenzo[b][1,4]dioxin-2-yl)methyl)-3-(4-((isoindolin-5-ylmethyl)sulfonyl)phenyl)urea]: 0.0538 µM, more than 30 µM and 0.0241 µM.
Taken in the same sequence, the figures for `CC(NC(=O)Nc1ccc(S(=O)(=O)Cc2ccc3c(c2)CNC3)cc1Br)c1ccccc1` (stereo not drawn) [H1485, 1-(2-bromo-4-((isoindolin-5-ylmethyl)sulfonyl)phenyl)-3-(1-phenylethyl)urea] were 0.0191 µM, more than 30 µM and 0.0102 µM.
Taken in the same sequence, the figures for `CC(NC(=O)Nc1ccc(S(=O)(=O)CC2=CC3CCC(C2)N3)cc1)c1cccc(Cl)c1Cl` (stereo not drawn) [H1488, 1-(4-(((8-azabicyclo[3.2.1]oct-2-en-3-yl)methyl)sulfonyl)phenyl)-3-(1-(2,3-dichlorophenyl)ethyl)urea] were 2.05 µM, more than 30 µM and 0.668 µM.
With `O=C(Nc1ccc(S(=O)(=O)Cc2ccc3c(c2)CNC3)cc1)N(O)Cc1ccccc1` [H1502, 1-benzyl-1-hydroxy-3-(4-((isoindolin-5-ylmethyl)sulfonyl)phenyl)urea], the IC50 in assay [1] came out at 0.164 µM. Moreover, the EC50 in assay [2] is more than 30 µM; in assay [3], 0.0351 µM.
The matching figures for `CN1Cc2ccc(CS(=O)(=O)c3ccc(NC(=O)N(O)Cc4ccccc4)cc3)cc2C1` [H1503, 1-benzyl-1-hydroxy-3-(4-(((2-methylisoindolin-5-yl)methyl)sulfonyl)phenyl)urea]: 0.512 µM, more than 30 µM and 0.101 µM.
The matching figures for `CC(NC(=O)Nc1ccc(S(=O)(=O)Cc2ccc3c(c2)CNC3)c(-c2ncco2)c1)c1ccccc1` (stereo not drawn) [H1507, 1-(4-((isoindolin-5-ylmethyl)sulfonyl)-3-(oxazol-2-yl)phenyl)-3-(1-phenylethyl)urea]: 0.0129 µM, more than 30 µM and 0.0197 µM.
Taken in the same sequence, the figures for `CC(NC(=O)Nc1ccc(S(=O)(=O)Cc2ccc3c(c2)CN(C)C3)c(-c2ncco2)c1)c1ccccc1` (stereo not drawn) [H1508, 1-(4-(((2-methylisoindolin-5-yl)methyl)sulfonyl)-3-(oxazol-2-yl)phenyl)-3-(1-phenylethyl)urea] were 0.0618 µM, more than 30 µM and 0.03 µM.
For `CC(NC(=O)Nc1ccc(S(=O)(=O)Cc2ccc3c(c2)CNC3)cc1C(C)(C)O)c1ccccc1` (stereo not drawn) [H1512, 1-(2-(2-hydroxypropan-2-yl)-4-((isoindolin-5-ylmethyl)sulfonyl)phenyl)-3-(1-phenylethyl)urea], the IC50 in assay [1] worked out at 0.582 µM. Besides, the EC50 in assay [2] was more than 30 µM; in assay [3], 0.273 µM.
The matching figures for `CC(=O)N1C2CC=C(CS(=O)(=O)c3ccc(NC(=O)NC(C)c4cccc(Cl)c4Cl)cc3)C1CC2` (stereo not drawn) [H1513, 1-(4-(((8-acetyl-8-azabicyclo[3.2.1]oct-2-en-2-yl)methyl)sulfonyl)phenyl)-3-(1-(2,3-dichlorophenyl)ethyl)urea]: 14.6 µM, more than 30 µM and 0.707 µM.
Take `CC(NC(=O)Nc1ccc(S(=O)(=O)CC2=CCC3CCC2N3C(C)C)cc1)c1cccc(Cl)c1Cl` (stereo not drawn) [H1514, 1-(1-(2,3-dichlorophenyl)ethyl)-3-(4-(((8-isopropyl-8-azabicyclo[3.2.1]oct-2-en-2-yl)methyl)sulfonyl)phenyl)urea]: the IC50 in assay [1] came out at 16.2 µM. Moreover, the EC50 in assay [2] was more than 30 µM; in assay [3], 0.0176 µM.
The matching figures for `CC(NC(=O)Nc1ccc(S(=O)(=O)Cc2ccc3c(c2)CNC3)c(CO)c1)c1ccccc1` (stereo not drawn) [H1520, 1-(3-(hydroxymethyl)-4-((isoindolin-5-ylmethyl)sulfonyl)phenyl)-3-(1-phenylethyl)urea]: 0.0262 µM, more than 30 µM and 0.0127 µM.
For the compound `Cc1ccc(C(C)NC(=O)Nc2ccc(S(=O)(=O)Cc3ccc4c(c3)CNC4)cc2)cc1C(F)F` (stereo not drawn) [H1521, 1-(1-(3-(difluoromethyl)-4-methylphenyl)ethyl)-3-(4-((isoindolin-5-ylmethyl)sulfonyl)phenyl)urea], the IC50 in assay [1] amounted to 0.0523 µM. The figures for the EC50 in assay [2] and in assay [3] were more than 30 µM and 0.0178 µM, respectively.
The matching figures for `CC(NC(=O)Nc1ccc2c(c1)S(=O)(=O)C(c1ccc3c(c1)CNC3)C2=O)c1ccccc1` (stereo not drawn) [H1522, 1-(2-(isoindolin-5-yl)-1,1-dioxido-3-oxo-2,3-dihydrobenzo[b]thiophen-6-yl)-3-(1-phenylethyl)urea]: 3.85 µM, more than 30 µM and 1.89 µM.
Regarding `COc1cc(S(=O)(=O)Cc2ccc3c(c2)CC(C)NC3)ccc1NC(=O)N(O)C(C)c1ccccc1` (stereo not drawn) [H1524, 1-hydroxy-3-(2-methoxy-4-(((3-methyl-1,2,3,4-tetrahydroisoquinolin-6-yl)methyl)sulfonyl)phenyl)-1-(1-phenylethyl)urea], the 50% inhibitory concentration (IC50) in assay [1] turned out to be 0.00977 µM. Moreover, the EC50 was more than 30 µM in assay [2] and 0.0126 µM in assay [3].
The matching figures for `COc1cc(S(=O)(=O)Cc2ccc3c(c2)CCN(C)C3)ccc1NC(=O)N(O)C(C)c1ccccc1` (stereo not drawn) [H1525, 1-hydroxy-3-(2-methoxy-4-(((2-methyl-1,2,3,4-tetrahydroisoquinolin-6-yl)methyl)sulfonyl)phenyl)-1-(1-phenylethyl)urea]: 0.0374 µM, more than 30 µM and 0.0255 µM.
Taken in the same sequence, the figures for `CC(NC(=O)Nc1ccc(S(=O)(=O)Cc2ccc3c(c2)CNC3)cc1-c1ccnn1C)c1ccccc1` (stereo not drawn) [H1528, 1-(4-((isoindolin-5-ylmethyl)sulfonyl)-2-(1-methyl-1H-pyrazol-5-yl)phenyl)-3-(1-phenylethyl)urea] were 0.581 µM, more than 30 µM and 0.0833 µM.
The matching figures for `CNC(=O)c1cc(NC(=O)NC(C)c2ccccc2)ccc1S(=O)(=O)Cc1ccc2c(c1)CNC2` (stereo not drawn) [H1529, 2-((isoindolin-5-ylmethyl)sulfonyl)-N-methyl-5-(3-(1-phenylethyl)ureido)benzamide]: 0.0474 µM, more than 30 µM and 0.0278 µM.
Regarding `CC(NC(=O)Nc1ccc(S(=O)(=O)Cc2ccc3c(c2)CNC3)c(C(=O)O)c1)c1ccccc1` (stereo not drawn) [H1530, 2-((isoindolin-5-ylmethyl)sulfonyl)-5-(3-(1-phenylethyl)ureido)benzoic acid], the 50% inhibitory concentration (IC50) in assay [1] was found to be 0.614 µM. The EC50 in assay [2] was more than 30 µM; in assay [3], 0.784 µM.
